Laboratory results taken from patent publication US7407961B2, “Pyrazine derivatives and pharmaceutical use thereof” (Astellas Pharma Inc., priority 2003, dated 2008).
Where a name gives a salt, the structure may show the parent alone.

SMILES | melting point [°C]
CC(C)n1cc(-c2nc(C#N)c(N)nc2-c2ccccc2)ccc1=O (as salt: Na) (hydrate or solvate) [Example 32, 3-Amino-6-(1-isopropyl-6-oxo-1,6-dihydro-3-pyridyl)-5-phenyl-2-pyrazinecarbonitrile] | 205.4
Cn1cc(-c2nc(C#N)c(N)nc2-c2ccccc2)ccc1=O (as salt: Na) [Example 11, 3-amino-6-(1-methyl-6-oxo-1,6-dihydro-3-pyridyl)-5-phenyl-2-pyrazinecarbonitrile] | > 250
NC(=O)c1nc(-c2ccc(=O)[nH]c2)c(-c2ccccc2)nc1N (hydrate or solvate) [Example 2, 3-amino-6-(6-oxo-1,6-dihydro-3-pyridyl)-5-phenyl-2-pyrazinecarboxamide] | 215 to 220
N#Cc1nc(-c2ccc(=O)[nH]c2)c(-c2ccccc2)nc1N (hydrate or solvate) [Example 10, 3-amino-6-(6-oxo-1,6-dihydro-3-pyridyl)-5-phenyl-2-pyrazinecarbonitrile] | 243 to 248
COc1ccc(-c2nc(C(N)=O)c(N)nc2-c2ccccc2)cn1 (hydrate or solvate) [Example 15, 3-amino-6-(6-methoxy-3-pyridyl)-5-phenyl-2-pyrazinecarboxamide] | 208 to 212
CC(C)n1cc(-c2nc(C#N)c(N)nc2-c2ccccc2F)ccc1=O (hydrate or solvate) [Example 33, 3-Amino-5-(2-fluorophenyl)-6-(1-isopropyl-6-oxo-1,6-dihydro-3-pyridyl)-2-pyrazinecarbonitrile] | 210.6
CC(C)n1cc(-c2nc(C#N)c(N)nc2-c2cccc(F)c2)ccc1=O (hydrate or solvate) [Example 34, 3-Amino-5-(3-fluorophenyl)-6-(1-isopropyl-6-oxo-1,6-dihydro-3-pyridyl)-2-pyrazinecarbonitrile] | 210.6
CC(C)n1cc(-c2nc(C#N)c(N)nc2-c2ccc(F)cc2)ccc1=O (hydrate or solvate) [Example 35, 3-Amino-5-(4-fluorophenyl)-6-(1-isopropyl-6-oxo-1,6-dihydro-3-pyridyl)-2-pyrazinecarbonitrile] | 207
COc1ccccc1-c1nc(N)c(C#N)nc1-c1ccc(=O)n(C(C)C)c1 (hydrate or solvate) [Example 36, 3-Amino-6-(1-isopropyl-6-oxo-1,6-dihydro-3-pyridyl)-5-(2-methoxyphenyl)-2-pyrazinecarbonitrile] | 222.6
COc1cccc(-c2nc(N)c(C#N)nc2-c2ccc(=O)n(C(C)C)c2)c1 (hydrate or solvate) [Example 37, 3-Amino-6-(1-isopropyl-6-oxo-1,6-dihydro-3-pyridyl)-5-(3-methoxyphenyl)-2-pyrazinecarbonitrile] | 192.3
CC(C)n1cc(-c2nc(C#N)c(N)nc2-c2ccc(F)c(F)c2)ccc1=O (hydrate or solvate) [Example 39, 3-Amino-5-(3,4-difluorophenyl)-6-(1-isopropyl-6-oxo-1,6-dihydro-3-pyridyl)-2-pyrazinecarbonitrile] | 180
COc1ccc(-c2nc(C#N)c(N)nc2-c2ccccc2)cn1 [Example 1, 3-amino-6-(6-methoxy-3-pyridyl)-5-phenyl-2-pyrazinecarbonitrile] | 201 to 205
Cn1cc(-c2nc(C(N)=O)c(N)nc2-c2ccccc2)ccc1=O [Example 3, 3-amino-6-(1-methyl-6-oxo-1,6-dihydro-3-pyridyl)-5-phenyl-2-pyrazinecarboxamide] | > 250
CCCn1cc(-c2nc(C(N)=O)c(N)nc2-c2ccccc2)ccc1=O [Example 5, 3-Amino-6-(6-oxo-1-propyl-1,6-dihydro-3-pyridyl)-5-phenyl-2-pyrazinecarboxamide] | > 250
CCOC(=O)c1nc(-c2ccc(=O)[nH]c2)c(-c2ccccc2)nc1N [Example 8, Ethyl 3-amino-6-(6-oxo-1,6-dihydro-3-pyridyl)-5-phenyl-2-pyrazinecarboxylate] | 230 to 238
CC(C)OC(=O)c1nc(-c2ccc(=O)[nH]c2)c(-c2ccccc2)nc1N [Example 9, isopropyl 3-amino-6-(6-oxo-1,6-dihydro-3-pyridyl)-5-phenyl-2-pyrazinecarboxylate] | 250 to 256
CCn1cc(-c2nc(C#N)c(N)nc2-c2ccccc2)ccc1=O [Example 12, 3-Amino-6-(1-ethyl-6-oxo-1,6-dihydro-3-pyridyl)-5-phenyl-2-pyrazinecarbonitrile] | 193 to 199
CCCn1cc(-c2nc(C#N)c(N)nc2-c2ccccc2)ccc1=O [Example 13, 3-Amino-6-(6-oxo-1-propyl-1,6-dihydro-3-pyridyl)-5-phenyl-2-pyrazinecarbonitrile] | 180 to 183

Further lines, results first:

melting point [°C] | SMILES
245 | CC(C)n1cc(-c2nc(C(N)=O)c(N)nc2-c2ccccc2)ccc1=O (hydrate or solvate) [Example 16, 3-amino-6-(1-isopropyl-6-oxo-1,6-dihydro-3-pyridyl)-5-phenyl-2-pyrazinecarboxamide]
251.7 | CC(C)n1cc(-c2nc(C(N)=O)c(N)nc2-c2ccccc2F)ccc1=O (hydrate or solvate) [Example 17, 3-Amino-5-(2-fluorophenyl)-6-(1-isopropyl-6-oxo-1,6-dihydro-3-pyridyl)-2-pyrazinecarboxamide]
258.8 | CC(C)n1cc(-c2nc(C(N)=O)c(N)nc2-c2cccc(F)c2)ccc1=O (hydrate or solvate) [Example 18, 3-Amino-5-(3-fluorophenyl)-6-(1-isopropyl-6-oxo-1,6-dihydro-3-pyridyl)-2-pyrazinecarboxamide]
235.6 | CC(C)n1cc(-c2nc(C(N)=O)c(N)nc2-c2ccc(F)cc2)ccc1=O (hydrate or solvate) [Example 19, 3-Amino-5-(4-fluorophenyl)-6-(1-isopropyl-6-oxo-1,6-dihydro-3-pyridyl)-2-pyrazinecarboxamide]
232.6 | CC(C)n1cc(-c2nc(C(N)=O)c(N)nc2-c2cccc(Cl)c2)ccc1=O (hydrate or solvate) [Example 21, 3-Amino-5-(3-chlorophenyl)-6-(1-isopropyl-6-oxo-1,6-dihydro-3-pyridyl)-2-pyrazinecarboxamide]
246.2 | CC(C)n1cc(-c2nc(C(N)=O)c(N)nc2-c2ccc(Cl)cc2)ccc1=O (hydrate or solvate) [Example 22, 3-Amino-5-(4-chlorophenyl)-6-(1-isopropyl-6-oxo-1,6-dihydro-3-pyridyl)-2-pyrazinecarboxamide]
263.1 | COc1ccccc1-c1nc(N)c(C(N)=O)nc1-c1ccc(=O)n(C(C)C)c1 (hydrate or solvate) [Example 23, 3-Amino-6-(1-isopropyl-6-oxo-1,6-dihydro-3-pyridyl)-5-(2-methoxyphenyl)-2-pyrazinecarboxamide]
192.3 | COc1cccc(-c2nc(N)c(C(N)=O)nc2-c2ccc(=O)n(C(C)C)c2)c1 (hydrate or solvate) [Example 24, 3-Amino-6-(1-isopropyl-6-oxo-1,6-dihydro-3-pyridyl)-5-(3-methoxyphenyl)-2-pyrazinecarboxamide]
243.9 | COc1ccc(-c2nc(N)c(C(N)=O)nc2-c2ccc(=O)n(C(C)C)c2)cc1 (hydrate or solvate) [Example 25, 3-Amino-6-(1-isopropyl-6-oxo-1,6-dihydro-3-pyridyl)-5-(4-methoxyphenyl)-2-pyrazinecarboxamide]
206.5 | CC(C)n1cc(-c2nc(C(N)=O)c(N)nc2-c2ccccc2OC(F)(F)F)ccc1=O (hydrate or solvate) [Example 26, 3-Amino-6-(1-isopropyl-6-oxo-1,6-dihydro-3-pyridyl)-5-[2-(trifluoromethoxy)phenyl]-2-pyrazinecarboxamide]
265.5 | CC(C)n1cc(-c2nc(C(N)=O)c(N)nc2-c2cccc(OC(F)(F)F)c2)ccc1=O (hydrate or solvate) [Example 27, 3-Amino-6-(1-isopropyl-6-oxo-1,6-dihydro-3-pyridyl)-5-[3-(trifluoromethoxy)phenyl]-2-pyrazinecarboxamide]
264 | CC(C)n1cc(-c2nc(C(N)=O)c(N)nc2-c2ccc(OC(F)(F)F)cc2)ccc1=O (hydrate or solvate) [Example 28, 3-Amino-6-(1-isopropyl-6-oxo-1,6-dihydro-3-pyridyl)-5-[4-(trifluoromethoxy)phenyl]-2-pyrazinecarboxamide]
225.8 | CC(C)n1cc(-c2nc(C(N)=O)c(N)nc2-c2ccc(F)c(F)c2)ccc1=O (hydrate or solvate) [Example 29, 3-Amino-5-(3,4-difluorophenyl)-6-(1-isopropyl-6-oxo-1,6-dihydro-3-pyridyl)-2-pyrazinecarboxamide]
248.8 | CC(C)n1cc(-c2nc(C(N)=O)c(N)nc2-c2cc(F)cc(F)c2)ccc1=O (hydrate or solvate) [Example 30, 3-Amino-5-(3,5-difluorophenyl)-6-(1-isopropyl-6-oxo-1,6-dihydro-3-pyridyl)-2-pyrazinecarboxamide]
292 | CC(C)n1cc(-c2nc(C(N)=O)c(N)nc2-c2ccc(C#N)cc2)ccc1=O (hydrate or solvate) [Example 31, 3-Amino-5-(4-cyanophenyl)-6-(1-isopropyl-6-oxo-1,6-dihydro-3-pyridyl)-2-pyrazinecarboxamide]
243.9 | COc1ccc(-c2nc(N)c(C#N)nc2-c2ccc(=O)n(C(C)C)c2)cc1 (hydrate or solvate) [Example 38, 3-Amino-6-(1-isopropyl-6-oxo-1,6-dihydro-3-pyridyl)-5-(4-methoxyphenyl)-2-pyrazinecarbonitrile]
222.2 | CC(C)n1cc(-c2nc(C(=O)O)c(N)nc2-c2ccc(F)cc2)ccc1=O (hydrate or solvate) [Example 40, 3-amino-5-(4-fluorophenyl)-6-(1-isopropyl-6-oxo-1,6-dihydro-3-pyridyl)-2-pyrazinecarboxylic acid]
240 to 245 | CC(C)n1cc(-c2nc(C(N)=O)c(N)nc2-c2ccccc2)ccc1=O [Example 6, 3-Amino-6-(1-isopropyl-6-oxo-1,6-dihydro-3-pyridyl)-5-phenyl-2-pyrazinecarboxamide]
